Data set [1] deals with T1, Protein deacetylase HDAC6 (Homo sapiens) (UniProt Q9UBN7).
T1 sequence (whole entry): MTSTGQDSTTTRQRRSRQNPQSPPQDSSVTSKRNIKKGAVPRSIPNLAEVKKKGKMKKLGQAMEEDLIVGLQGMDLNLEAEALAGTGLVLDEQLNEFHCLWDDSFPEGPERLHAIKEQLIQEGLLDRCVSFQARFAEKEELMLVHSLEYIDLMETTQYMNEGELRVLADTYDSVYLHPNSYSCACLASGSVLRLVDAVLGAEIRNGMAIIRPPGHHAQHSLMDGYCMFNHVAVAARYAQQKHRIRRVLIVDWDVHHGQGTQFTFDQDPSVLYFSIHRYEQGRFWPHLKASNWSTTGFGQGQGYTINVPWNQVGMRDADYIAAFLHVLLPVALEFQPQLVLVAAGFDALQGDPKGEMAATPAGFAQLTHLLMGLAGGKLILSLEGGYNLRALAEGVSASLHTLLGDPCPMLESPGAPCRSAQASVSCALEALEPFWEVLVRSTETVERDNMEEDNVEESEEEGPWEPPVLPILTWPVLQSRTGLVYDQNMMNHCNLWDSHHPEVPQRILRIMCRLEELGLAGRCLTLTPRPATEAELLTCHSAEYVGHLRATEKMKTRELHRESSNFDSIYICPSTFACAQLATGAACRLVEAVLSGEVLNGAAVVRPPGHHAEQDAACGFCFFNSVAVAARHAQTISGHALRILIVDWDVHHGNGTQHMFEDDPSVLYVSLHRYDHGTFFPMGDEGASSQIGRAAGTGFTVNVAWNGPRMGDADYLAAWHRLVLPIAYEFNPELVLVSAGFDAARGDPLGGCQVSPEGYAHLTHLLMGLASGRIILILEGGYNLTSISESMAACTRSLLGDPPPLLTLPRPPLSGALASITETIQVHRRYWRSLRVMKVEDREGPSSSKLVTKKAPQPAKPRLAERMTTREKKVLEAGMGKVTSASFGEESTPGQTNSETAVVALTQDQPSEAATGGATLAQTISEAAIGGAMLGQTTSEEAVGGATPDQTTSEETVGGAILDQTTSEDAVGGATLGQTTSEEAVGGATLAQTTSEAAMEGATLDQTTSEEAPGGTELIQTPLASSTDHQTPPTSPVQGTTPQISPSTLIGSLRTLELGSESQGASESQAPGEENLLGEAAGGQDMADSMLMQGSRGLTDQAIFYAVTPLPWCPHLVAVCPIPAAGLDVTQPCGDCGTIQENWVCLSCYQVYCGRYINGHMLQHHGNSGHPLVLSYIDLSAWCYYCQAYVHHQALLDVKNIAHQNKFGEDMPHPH
The data set is described as follows: Inhibition of HDAC6 in human A549 cells assessed as increase in alpha tubulin acetylation measured after 24 hrs by Immunofluorescent assay. Type of data set: cell-based.

Data set [2] concerns A549. The data set is described as follows: Antitumor activity against human A549 cells xenografted in BALB/c mouse assessed as tumor growth inhibition at high dose when administered intratumorally for 21 days relative to control. Type of data set: functional. The conditions noted are these: route it(Intratumoral); time 21 day.
A further data set relates to K562. The data set is described as follows: Induction of apoptosis in human K562 cells assessed as increased cleaved caspase 3 at 10 uM measured after 8 hrs by Western blot analysis. Format: functional, cell-based.
Data set [3] can be described thus: Acute toxicity in BALB/c mouse assessed as effect on normal behaviour at up to 2000 mg/kg, po. Particulars: in vivo. Type of data set: organism-based.
In data set [4] the test system is A549. The data set is described as follows: Antitumor activity against human A549 cells xenografted in BALB/c mouse assessed as tumor growth inhibition at low dose when administered intratumorally for 21 days relative to control. Type of data set: functional. Particulars: route it(Intratumoral); time 21 day.

Calls of active or inactive are those of the source. The rule behind the calls is not given here.

For the compound `O=C(CCCSC[C@H](NC(=O)c1ccccc1)C(=O)Nc1ccccc1)NO`, the inhibition entry in data set [1] is “Dose-dependent effect”. In addition, the inhibition of tumour growth (TGI) with A549 [2] was determined as 72%; in the data set with A549 [4], 44%. Besides, the result with K562 was Active. The Activity entry in data set [3] is on record as “Non-Toxic”.

For the origin of these results see ChEMBL document CHEMBL5055644, “Cysteine derivatives as acetyl lysine mimics to inhibit zinc-dependent histone deacetylases for treating cancer” (Eur J Med Chem, 2021).
